Measurements reported in US10617735B2, “Methods and compositions for preserving retinal ganglion cells” (Massachusetts Eye and Ear Infirmary, priority 2010, dated 2020).

Key:
Type in all cases: in vivo, mouse
[1] = system: retinal ganglion cells (RGCs); experiment: TUNEL staining after ON injury; details: one day after ON injury; intravitreal 3-MA (33.3 mM); compared to non-treated mice
From the text: Two mouse models of RGC death were utilized: optic nerve (ON) injury and N-methyl-D-aspartate (NMDA) retinal excitotoxicity. ON injury leads to RGC death as a result of primary damage to the axons, with its ensuing disruption of retrograde axonal transport (Libby et al., (2005) PLOS GENET 1:17-26) and is used as an RGC death model. In the ON injury model, mice were anesthetized and subjected to severe crush injury at 1-2 mm distance from the eyeball for 15 seconds using cross-action forceps taking special care not to interfere with the blood supply (Levkovitch-Verbin, (2004) EYE 18:1066-1074). […] Soon after injury, each group received an intravitreal injection (2 μl) with the respective compounds. In the NMDA retinal excitotoxicity model, NMDA (2 μl of a 0.1M stock; Sigma-Aldrich) was injected intravitreously in combination with ZVAD, Nec-1, or ZVAD plus Nec-1 and mice were separated into the aforementioned 4 groups. The dose of these compounds was selected based on previous studies (Karl et al., (2008) PROC NATL ACAD SCI USA 105:19508-19513; Knoferle et al., (2010) PROC NATL ACAD SCI USA 107:6064-6069; Nakazawa et al., (2006) J NEUROSCI 26:12633-12641; Rosenbaum et al., (2010) J NEUROSCI RES 88:1569-1576).
Intravitreal injections were performed as follows. Briefly, the tip of a 33 gauge needle (Hamilton, Reno, Nev.) was carefully inserted through the sclera into the intravitreal space to reduce intraocular pressure. Then, the needle was extracted, loaded with compounds and tangentially reinserted through the sclera into the intravitreal space, inducing a self-sealing wound tunnel. After injection, the absence of choroidal bleeding was confirmed. At specified times after injury, mice were sacrificed with an overdose of sodium pentobarbital, and eyes were enucleated.

[2] = system: retinal ganglion cells (RGCs); experiment: Brn3b immunohistochemistry (viable RGCs) after ON injury; details: seven days after ON injury; intravitreal 3-MA (33.3 mM); effect less than ZVAD plus Nec-1
From the text: Two mouse models of RGC death were utilized: optic nerve (ON) injury and N-methyl-D-aspartate (NMDA) retinal excitotoxicity. ON injury leads to RGC death as a result of primary damage to the axons, with its ensuing disruption of retrograde axonal transport (Libby et al., (2005) PLOS GENET 1:17-26) and is used as an RGC death model. In the ON injury model, mice were anesthetized and subjected to severe crush injury at 1-2 mm distance from the eyeball for 15 seconds using cross-action forceps taking special care not to interfere with the blood supply (Levkovitch-Verbin, (2004) EYE 18:1066-1074). Injured mice were randomly divided into 4 groups for treatment: vehicle group (0.5% DMSO and 0.8% cyclodextrin in PBS, n=6), ZVAD group (300 n=6), Nec-1 group (4 mM, n=6), and ZVAD plus Nec-1 group (n=6). Soon after injury, each group received an intravitreal injection (2 μl) with the respective compounds. In the NMDA retinal excitotoxicity model, NMDA (2 μl of a 0.1M stock; Sigma-Aldrich) was injected intravitreously in combination with ZVAD, Nec-1, or ZVAD plus Nec-1 and mice were separated into the aforementioned 4 groups. […]

[3] = system: retinal ganglion cells (RGCs); experiment: IPL thickness and GCL with IPL thickness after ON injury (immunohistochemistry, SD-OCT); details: seven days after ON injury; intravitreal 3-MA (33.3 mM); effect less than ZVAD plus Nec-1
Description: An anti-TNF-α neutralizing antibody (0.1 mg/ml) or a control antibody was injected into the vitreous of mice that underwent ON injury. One week following injection, the number of RGCs were measured. In addition, inner plexiform layer (IPL) thickness (a location of RGC axons) was also assessed. Specifically, eyes were enucleated and RGC loss was quantified from histological sections of mouse retina. Only transverse sections involving the optic disc were used for analysis and the fields corresponding to approximately 400 μm of both sides of retina extending from the ON head (2 points/section×3 sections per eye, n=6) were examined with an optical microscope (×40 objectives). IPL thickness was measured with OpenLab software (Open Lab, Florence, Italy) (2 points/section×3 sections per eye, n=6). The ratio of IPL thickness was calculated as a percentage of IPL thickness in the normal mouse eyes (n=6).
Inner plexiform layer (IPL) thickness and ganglion cell layer (GCL) with IPL thickness (location of RGC cell bodies and axons) were measured using immunohistochemistry and a Spectral Domain Optical Coherence Tomography (SD-OCT) system (Bioptigen Inc., Durham, N.C.). […] The thickness of GCL+IPL was assessed at 500 μm, 400 μm, 300 μm distance from the ON head (nasally and temporally) as well as at 200 μm, 400 μm above and below the ON head.

ROS = experiment: Protein carbonyl contents in retina after ON injury (ELISA); details: one day after ON injury; intravitreal 3-MA; compared with untreated control
Description: It has been reported that RIP kinases control ROS generation during programmed necrosis (Cho et. al., (2009) CELL 137:1112-1123, Zhang et al., (2009) SCIENCE 325:332-336)). To investigate whether ROS play a roll in oxidative retinal damage after ON injury, protein level of carbonyl contents was analyzed using ELISA using the OxiSelect™ Protein Carbonyl ELISA Kit (Cell Biolabs, San Diego, Calif.).
To investigate the role of autophagy in RGC death after ON injury, we examined the effect of 3-methyladenine (3-MA) on RGCs death after ON injury. 3-MA inhibits autophagosome formation (Seglen and Gordon, (1982) PROC NATL ACAD SCI USA 79:1889-1892)). One day after ON injury, TUNEL assay was performed. […] In addition, the number of Brn3b positive cells and IPL thickness were also analyzed. […] To investigate whether ROS play a role in oxidative retinal damage after ON injury, protein level of carbonyl contents was analyzed using an ELISA kit (Cell Biolabs, San Diego, Calif.) according to the manufacturer's instructions. One day after ON injury, carbonyl contents decreased in the 3-MA treated group compared with untreated control (FIG. 10F).

## Cn1cnc(N)c2ncnc1-2 [3-MA, 3-methyladenine]
[1]
  number of TUNEL positive cells: small but statistically significant decline
[2]
  reduction of Brn3b positive cells: significantly prevented the reduction
[3]
  reduction of IPL thickness ratio: significantly prevented the reduction
ROS
  carbonyl contents (protein level, ELISA): decreased
